Data as given in patent US20210047278A1, “E3 UBIQUITIN LIGASE AGONISTS, PHARMACEUTICAL COMPOSITIONS INCLUDING THE E3 UBIQUITIN LIGASE AGONISTS, RELATED METHODS OF USE” (FRED HUTCHINSON CANCER RESEARCH CENTER, priority 2018, published 2021).
Like-named read-outs stand apart in the source and are kept apart here.

Columns and labels:
Assay type in all cases: binding
[1] = molecular target: T1, FBW7^ARG+pCycE (Homo sapiens, UniProt Q969H0, R505L); experiment: FBW7^ARG-cyclin E agonist ALPHAscreen (primary PRUN, confirmation CRUN1, dose-response DRUN); conditions: for EC50 / Emax: DRUN dose-response; for Emax: relative to WT-FBW7+pCycE, read-out: FBW7 ACT Averaged Max % Response
T1 construct: GST (TEV site and flexible linker) (N, cleaved yes); made in house; host or cells: SF9 insect cells (baculovirus)
Method in brief: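 Compounds tested once at 26.1 μM (primary; confirmation in triplicate) or in a triplicate 10-point 3-fold dilution up to ~87 μM (dose-response). Bridging of 25 nM mutant FBW7 R505L to 25 nM biotinylated phosphorylated cyclin E peptide detected by Ni-acceptor/streptavidin-donor ALPHA signal, normalized to WT-FBW7+pCycE.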

[2] = molecular target: T2, FBW7^ARG (RLFBW7) alone (Homo sapiens, UniProt Q969H0, R505L); experiment: Counterscreen 1 ALPHAscreen with FBW7^ARG alone (CSRUN1/DCSRUN1); conditions: dose-response counterscreen; for Emax: read-out: RLFBW7 ACT DCSRUN1 Averaged Max % Response
T2 construct: GST (TEV site and flexible linker) (N, cleaved yes); made in house; host or cells: SF9 insect cells (baculovirus)
Method in brief: (§1)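 Dose-response in triplicate, 10 points in 3-fold steps with a top concentration near 87 μM. Each counterscreen lacks one partner (FBW7^ARG alone or pCycE alone), giving signal not due to the binding pair. Activity is % activation versus WT-FBW7+pCycE; positive threshold 10%.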

[3] = test system: pCycE alone; experiment: Counterscreen 2 ALPHAscreen with cyclin E phosphopeptide alone (CSRUN2/DCSRUN2); conditions: for CyCEP ACT DCSRUN2 Averaged Max % Response: activation relative to WT-FBW7+pCycE, averaged maximum; for EC50: dose-response, triplicate, 10 point 3-fold dilutional series, read-out: CyCEP ACT DCSRUN2 Final EC50
Method in brief: as §1

[4] = raw curve fit, read-out: FBW7 ACT EC50 Curve Fit Raw, Molar
[5] = triplicate, 10 point 3-fold dilution, max approx. 87 μM, read-out: FBW7 ACT Final EC50, Molar
[6] = confirmation assay, triplicate, single concentration 26.1 μM, read-out: FBW7 ACT CRUN1 Avg % Response and Stdev
[7] = primary screen, 1536-well, 26.1 μM, FBW7^ARG + pCycE degron peptide, high control wt-FBW7+pCycE, read-out: FBW7 ACT PRUN % Response
[8] = raw curve fit, read-out: RLFBW7 ACT DCSRUN1 EC50 Curve Fit Raw
[9] = read-out: RLFBW7 ACT DCSRUN1 Final EC50

T2 sequence (Q969H0 64-707 R505L): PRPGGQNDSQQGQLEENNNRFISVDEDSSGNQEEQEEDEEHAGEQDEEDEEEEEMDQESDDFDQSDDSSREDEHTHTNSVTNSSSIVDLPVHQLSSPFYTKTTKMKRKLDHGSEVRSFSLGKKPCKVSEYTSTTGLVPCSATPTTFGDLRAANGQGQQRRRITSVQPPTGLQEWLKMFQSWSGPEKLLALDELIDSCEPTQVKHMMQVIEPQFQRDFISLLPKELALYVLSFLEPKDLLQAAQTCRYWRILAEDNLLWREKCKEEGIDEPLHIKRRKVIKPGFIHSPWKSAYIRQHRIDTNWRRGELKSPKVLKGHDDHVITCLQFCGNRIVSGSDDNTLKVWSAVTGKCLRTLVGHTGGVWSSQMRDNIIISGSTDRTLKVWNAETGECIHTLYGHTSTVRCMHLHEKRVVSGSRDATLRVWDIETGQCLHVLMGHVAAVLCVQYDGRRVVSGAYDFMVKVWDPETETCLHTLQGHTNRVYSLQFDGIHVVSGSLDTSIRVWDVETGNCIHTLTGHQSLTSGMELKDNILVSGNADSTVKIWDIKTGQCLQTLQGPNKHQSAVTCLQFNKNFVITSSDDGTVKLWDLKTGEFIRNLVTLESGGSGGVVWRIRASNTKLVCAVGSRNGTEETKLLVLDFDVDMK
T2 sequence (P63208 2-163 partner): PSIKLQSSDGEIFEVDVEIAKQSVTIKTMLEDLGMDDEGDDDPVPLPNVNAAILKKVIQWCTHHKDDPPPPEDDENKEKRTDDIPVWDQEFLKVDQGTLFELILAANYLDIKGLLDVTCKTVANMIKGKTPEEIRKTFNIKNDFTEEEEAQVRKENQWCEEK
T1 sequence (Q969H0 64-707 R505L): as the sequence (Q969H0 64-707 R505L) above
T1 sequence (P63208 2-163 partner): as the sequence (P63208 2-163 partner) above

Row | EC50 [1, 4] [µM] | Emax [1] [%] | EC50 [1, 5] [µM] | activation at 26.1 µM [1, 6] [%] | activation at 26.1 µM [1, 7] [%] | EC50 [2, 8] [µM] | Emax [2] [%] | EC50 [2, 9] [µM] | RLFBW7 ACT DCSRUN1 Hill Slope [2] | Structure (SMILES) | CyCEP ACT DCSRUN2 Averaged Max % Response [3] [%] | EC50 [3] [µM]
1 | 26.4 | 22.7 | > 65.3 | 4.06 ± 0.07 | 3.64 |  | 0.25 | > 65.3 |  | COc1cccc(/C=N/c2cnn(C)c2C(N)=O)c1O [SR-01000314216-1] | 0.18 | > 65.3
2 | 12.7 | 6.99 | > 65.3 | 2.06 ± 0.33 | 2.3 | 13.9 | -0.189 | > 65.3 |  | CC(C)c1ccc(Nc2nccn3c(-c4ccoc4)cnc23)cc1 [SR-01000376943-1] | 1.39 | > 65.3
3 | 21.9 | 10.7 | > 65.3 | 2.9 ± 0.27 | 2.13 | 19 | 5.19 | > 65.3 |  | CCCOc1ccc(C2C(C(=O)OC)=CN(CCOC)C=C2C(=O)OC)cc1 [SR-01000259436-1] | 0.31 | > 65.3
4 | 5.7 | 13.7 | > 49.3 | 4.18 ± 0.65 | 4.07 |  | 1.89 | > 49.3 |  | CCCCCCCC(=O)Nc1ccc(C(=O)Nc2ccc(O)c(C(=O)O)c2)cc1 [SR-01000507444-1] | 2.05 | > 49.3
5 | 16.5 | 18.3 | > 65.3 | 4.96 ± 0.03 | 3.13 | 22.5 | 0.09 | > 65.3 |  | Cc1cccc(NC(=O)N2CCC(c3nnc(C4CC4)s3)CC2)c1 [SR-01000922889-1] | 0.23 | > 65.3
6 | 0.255 | 6.18 | > 65.3 | 2.32 ± 0.39 | 3.06 | 0.255 | -0.0757 | > 65.3 |  | O=C(NCCCN1CCc2ccccc2C1)Nc1ccc(Br)cc1 [SR-01000123578-1] | 0.28 | > 65.3
7 | 53.6 | 23.5 | > 65.3 | 3.94 ± 9.71 | 8.85 | 28.6 | 83 | 29.9 | 6.64 | CSc1ccccc1C(=O)Nc1nc2nc(C)cc(C)c2s1 [SR-01000917298-1] | 0.18 | > 65.3
8 | 0.0017 | 7.11 | > 59.3 | 2.95 ± 3.6 | 1.88 |  | -0.422 | > 59.3 |  | COc1ccc(OC)c(/C=C2/N=C(c3cccc([N+](=O)[O-])c3)OC2=O)c1 [SR-01000414795-1] | 0.02 | > 59.3
9 | 9.2 | 12.9 | > 65.3 | 2.28 ± 0.37 | 1.91 | 0.0925 | 0.77 | > 65.3 |  | CN(C)CC[S+]([O-])c1cc(-c2cn[nH]c2)ccc1NC(=O)[C@@H]1Cc2cc(F)ccc2CN1.O=C(O)C(F)(F)F (stereo partly shown) [SR-00000005398-1] | 0.21 | > 65.3
10 | 7.1 | 7.86 | > 54.4 | 5.2 ± 0.56 | 2.03 | 24.5 | 0.86 | > 54.4 |  | CCSCCOC(=O)C1=C(C)NC2=C(C(=O)CCC2)C1c1ccc(Br)cc1 (stereo not shown) [SR-01000422432-1] | 0.21 | > 54.4
11 | 9.6 | 15.5 | > 45.3 | 5.81 ± 0.4 | 6.08 | 0.0074 | 1.76 | > 45.3 |  | CCOC(=O)C1CCN(C(=O)Nc2ccc(NC(=O)C3CCN(C(=O)OCC)CC3)cc2)CC1 [SR-01000451467-1] | 2.82 | > 45.3
12 | 16.4 | 9.01 | > 45.8 | 4.54 ± 0.53 | 2.09 | 0.0785 | 3.8 | > 45.8 |  | CC1=C(C(=O)OCCc2ccccc2)C(c2ccc(Cl)cc2Cl)C2=C(CC(C)(C)CC2=O)N1 (stereo not shown) [SR-01000419178-1] | 0.09 | > 45.8
13 | 15.1 | 9.73 | > 87.4 | 11.2 ± 1.65 | 2.51 | 0.0102 | 1.48 | > 87.4 |  | COc1ccc(N2C(=O)CC(SCCN)C2=O)cc1 (stereo not shown) [SR-01000428800-1] | 2.47 | > 87.4

More lines, now with the values behind:

Row | Structure (SMILES) | EC50 [1, 4] [µM] | Emax [1] [%] | EC50 [1, 5] [µM] | activation at 26.1 µM [1, 6] [%] | activation at 26.1 µM [1, 7] [%] | EC50 [2, 8] [µM] | Emax [2] [%] | EC50 [2, 9] [µM] | RLFBW7 ACT DCSRUN1 Hill Slope [2] | CyCEP ACT DCSRUN2 Averaged Max % Response [3] [%] | EC50 [3] [µM]
14 | CCSCCOC(=O)C1=C(C)NC2=C(C(=O)CC(c3ccccc3)C2)C1c1ccc(OC)cc1OC (stereo not shown) [SR-01000425645-1] | 0.0036 | 7.92 | > 41.4 | 5.16 ± 0.69 | 2.28 | 0.0044 | 0.91 | > 41.4 |  | 2.61 | > 41.4
15 | Cc1cccc(N2CCN(C(=O)CCc3nc(C4=CCN(C)CC4)no3)CC2C)c1 (stereo not shown) [SR-01000140019-1] |  | 10.2 |  | 3.38 ± 0.3 | 4.08 |  | -0.213 |  |  | 0.31 | > 65.3
16 | CCC(c1nnnn1CCC(C)C)N1CCN(C(=O)c2ccco2)CC1 (stereo not shown) [SR-01000340422-1] | 24 | 6.45 | > 65.3 | 2.97 ± 0.23 | 2.16 | 2.3 | 0.87 | > 65.3 |  | 0.18 | > 65.3
17 | Cn1nc(CC(=O)Nc2ccc(F)c(Cl)c2)c2ccccc2c1=O [SR-01000589827-1] | 0.698 | 7.32 | > 85 | 2.48 ± 0.45 | 1.93 |  | -0.247 | > 85 |  | 0.04 | > 85
18 | COc1cccc(/C=N/c2ccc3[nH]ncc3c2)c1O [SR-01000359514-1] | 21.1 | 15.2 | > 65.3 | 2.38 ± 0.5 | 6.3 | 23.7 | 0.39 | > 65.3 |  | 0.13 | > 65.3
19 | CC(C)[C@@H](CO)Nc1ccc2ncc(-c3cccc(Cl)c3)n2n1 [SR-01000383396-1] | 0.127 | 6.14 | > 65.3 | 2.27 ± 0.17 | 2.03 |  | 0.49 | > 65.3 |  | 0.27 | > 65.3
20 | O=c1c2cnn(-c3ccccc3)c2nnn1Cc1cccnc1 [SR-01000355082-1] | 0.009 | 6.4 | > 65.3 | 2.54 ± 0.42 | 1.95 | 11.9 | 2.7 | > 65.3 |  | 0.12 | > 65.3
21 | CCC(C)OC(=O)C1=C(C)NC2=C(C(=O)CC(c3ccccc3)C2)C1c1cccc2ccccc12 (stereo not shown) [SR-01000423185-1] | 15.9 | 13 | > 47.6 | 5.54 ± 0.29 | 2.18 |  | 8.99 | > 47.6 |  | 11.24 | > 47.6
22 | COc1ccccc1C1C(C(=O)OC2CCCC2)=C(C)NC2=C1C(=O)CC(c1ccccc1)C2 (stereo not shown) [SR-01000422836-1] | 2400 | 10.3 | > 45.9 | 5.59 ± 0.74 | 2.6 | 16.4 | 4.23 | > 45.9 |  | 0.14 | > 45.9
23 | CC1=C(C(=O)OCc2ccccc2)C(c2cn(-c3ccccc3)nc2-c2ccc(F)cc2)C(C(=O)OCc2ccccc2)=C(C)N1 [SR-01000425637-1] | 0.0034 | 8.34 | > 34.2 | 4.66 ± 1.07 | 1.93 |  | 1.54 | > 34.2 |  | 2.59 | > 34.2
